Tests used:
Test in all cases: relative viability (nuclei count vs DMSO), 5 days (fraction); higher = more cells survive
Midostaurin + Olaparib = compound: CO[C@@H]1[C@H](N(C)C(=O)c2ccccc2)C[C@H]2O[C@]1(C)n1c3ccccc3c3c4c(c5c6ccccc6n2c5c31)C(=O)NC4 [Midostaurin] + O=C(c1cc(Cc2n[nH]c(=O)c3ccccc23)ccc1F)N1CCN(C(=O)C2CC2)CC1 [Olaparib] (partner 8 µM)
How it was run: (§1)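 Lung cancer cell lines were seeded in 1536-well plates and dosed by pin tool the next day, with either a single drug or a fixed anchor-drug dose combined with five library-drug doses (not always all listed) spaced in √10 steps. Five days later, one step fixed the cells and stained their nuclei (final 0.05% Triton X-100, 1% formaldehyde, 1 ug/ml Hoechst), and nuclei were counted on 4× images. Relative viability is the nuclei count in treated wells divided by the count in vehicle wells, and each value is the median of duplicate plates.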

Midostaurin + Lapatinib = compound: CO[C@@H]1[C@H](N(C)C(=O)c2ccccc2)C[C@H]2O[C@]1(C)n1c3ccccc3c3c4c(c5c6ccccc6n2c5c31)C(=O)NC4 [Midostaurin] + CS(=O)(=O)CCNCc1ccc(-c2ccc3ncnc(Nc4ccc(OCc5cccc(F)c5)c(Cl)c4)c3c2)o1 [Lapatinib] (partner 2 µM)
How it was run: as §1

[1] = compound: COc1cc(-c2nn([C@H]3CC[C@H](N4CCN(C(C)=O)CC4)CC3)c3ncnc(N)c23)ccc1NC(=O)c1cc2ccccc2n1C + COc1cccc2cc(-c3nc([C@H]4CC[C@H](C(=O)O)CC4)n4ncnc(N)c34)[nH]c12 [OSI-027] (partner 0.5 µM)
How it was run: as §1

[2] = compound: COc1cc(-c2nn([C@H]3CC[C@H](N4CCN(C(C)=O)CC4)CC3)c3ncnc(N)c23)ccc1NC(=O)c1cc2ccccc2n1C + Cc1cc(Nc2cc(N3CCN(C)CC3)nc(Sc3ccc(NC(=O)C4CC4)cc3)n2)n[nH]1 [Tozasertib] (partner 0.1 µM)
How it was run: as §1

[3] = compound: COc1cc(-c2nn([C@H]3CC[C@H](N4CCN(C(C)=O)CC4)CC3)c3ncnc(N)c23)ccc1NC(=O)c1cc2ccccc2n1C + Nc1ncn([C@H]2C[C@H](O)[C@@H](CO)O2)c(=O)n1 [Decitabine] (partner 2 µM)
How it was run: as §1

| Cell Line | relative viability (Midostaurin + Olaparib; first compound 0.01 µM) | relative viability (Midostaurin + Olaparib; first compound 0.03162 µM) | relative viability (Midostaurin + Olaparib; first compound 0.1 µM) | relative viability (Midostaurin + Olaparib; first compound 0.3162 µM) | relative viability (Midostaurin + Lapatinib; first compound 0.01 µM) | relative viability (Midostaurin + Lapatinib; first compound 0.03162 µM) | relative viability (Midostaurin + Lapatinib; first compound 0.1 µM) | relative viability (Midostaurin + Lapatinib; first compound 0.3162 µM) | relative viability ([1]; first compound 0.0128 µM) | relative viability ([1]; first compound 0.04048 µM) | relative viability ([1]; first compound 0.128 µM) | relative viability ([1]; first compound 1.28 µM) | relative viability ([2]; first compound 0.0128 µM) | relative viability ([2]; first compound 0.04048 µM) | relative viability ([2]; first compound 0.128 µM) | relative viability ([2]; first compound 1.28 µM) | relative viability ([3]; first compound 0.0128 µM) | relative viability ([3]; first compound 0.04048 µM) | relative viability ([3]; first compound 0.128 µM) | relative viability ([3]; first compound 1.28 µM) |
| --- | --- | --- | --- | --- | --- | --- | --- | --- | --- | --- | --- | --- | --- | --- | --- | --- | --- | --- | --- | --- |
| NCI-H1355 | 0.777 | 0.78 | 0.77 | 0.68 | 0.979 | 0.959 | 1.08 | 1.09 | 0.47 | 0.315 | 0.507 | 0.433 | 0.541 | 0.551 | 0.497 | 0.28 | 0.332 | 0.35 | 0.338 | 0.372 |
| NCI-H1395 | 0.44 | 0.468 | 0.454 | 0.465 | 1.04 | 1.12 | 0.912 | 1.3 | 0.573 | 0.674 | 0.723 | 0.556 | 0.77 | 0.81 | 0.714 | 0.561 | 0.753 | 0.748 | 0.77 | 0.533 |
| NCI-H1437 | 0.618 | 0.665 | 0.629 | 0.516 | 0.808 | 0.848 | 0.773 | 0.882 | 0.796 | 0.992 | 0.861 | 0.838 | 0.393 | 0.437 | 0.387 | 0.277 | 0.576 | 0.6 | 0.558 | 0.599 |
| NCI-H1650 | 0.945 | 0.793 | 0.727 | 0.703 | 0.757 | 0.791 | 0.878 | 0.581 | 0.54 | 0.707 | 0.492 | 0.577 | 0.36 | 0.374 | 0.351 | 0.2 | 0.49 | 0.497 | 0.341 | 0.515 |
| NCI-H1651 | 0.199 | 0.2 | 0.169 | 0.17 | 0.74 | 0.931 | 0.787 | 1.05 | 0.664 | 0.748 | 0.531 | 0.644 | 0.616 | 0.769 | 0.635 | 0.37 | 0.587 | 0.654 | 0.605 | 0.438 |
| NCI-H1666 | 0.709 | 0.708 | 0.694 | 0.673 | 0.74 | 0.617 | 0.81 | 0.634 | 0.795 | 0.789 | 0.764 | 0.784 | 0.619 | 0.67 | 0.593 | 0.587 | 0.71 | 0.673 | 0.758 | 0.66 |
| NCI-H1734 | 0.603 | 0.562 | 0.62 | 0.69 | 1.01 | 1.1 | 1.07 | 1.12 | 0.659 | 0.551 | 0.613 | 0.485 | 0.293 | 0.234 | 0.253 | 0.201 | 0.521 | 0.468 | 0.516 | 0.479 |

Reference: the supplement of paper PMC10307832
